# Assay results as given in patent US8957024B2, “Composition and methods for reducing opioid-induced pruritus” (priority 2011, dated 2015).
# Entries after “also recorded” stand apart in the source; their conditions may differ.
# How the values were obtained:
# mice [1] = settings: mouse, in vivo
# MOR1D mRNA = assay: qRT-PCR after i.t. siRNA: MOR1D mRNA; assay type: in vivo, mouse; settings: spinal cord
# Method: (§1) Selective siRNA duplexes for mouse Oprm exons, PLCβ1/3 and IP3R3 were intrathecally injected daily for 3 consecutive days. Behavior testing and tissue harvest were carried out at 48 hr after the last injection. RNA was dissolved in diethyl pyrocarbonate-treated PBS and prepared immediately prior to administration by mixing the RNA solution with a transfection reagent, ExGen 500 (Fermentas). The final concentration of RNA was 1.25 μg/5 μl. siRNA or ExGen 500 alone (defined as vehicle) in 5 μl was delivered to the lumbar region of the spinal cord. The injection was given daily for 3 consecutive days (Luo et al., 2005; Tan et al., 2009). Behavior testing and tissue harvest were carried out 48 hr after the last injection.
# (§2) LCM were performed as previously described (van Baarlen et al., 2009) with minor modifications. Frozen sections (30 μm thickness) of the lumber spinal cord were cut at −20° C. and stored at −80° C. […]
# (§3) RNA was isolated from the LCM sample caps using the PicoPure RNA isolation kit (Arcturus) following manufacturer's recommendations. […] Quantitative PCR amplification was performed in 96-well plates on an Mx3000 QPCR system (Stratagene). […]
# (§4) Expression of target mRNA was normalized to expression of 18S rRNA. The differences in mRNA expression between treatments were analyzed using the Comparative CT Method (Gallup et al., 2005). […]
# mice [2] = assay: Gastrin-releasing peptide induced scratching (GIS); assay type: in vivo, mouse
# HA-MOR1D = target: T1, HA-MOR1D (Mus musculus, UniProt P42866); assay: Receptor internalization assay (ELISA, immunofluorescence staining) in HEK 293 cells: MOR1D; assay type: cell-based; settings: HEK 293 cells expressing MOR1D, or MOR1D and GRPR; agonist 1 μM
# T1 construct: expressed in transfected cells
# Myc-GRPR = target: T2, Myc-GRPR (Mus musculus, UniProt P21729); assay: Receptor internalization assay (ELISA, immunofluorescence staining) in HEK 293 cells: GRPR; assay type: cell-based; settings: agonist 1 μM, 30 min
# T2 construct: expressed in transfected cells
# T2 sequence (P21729 whole entry): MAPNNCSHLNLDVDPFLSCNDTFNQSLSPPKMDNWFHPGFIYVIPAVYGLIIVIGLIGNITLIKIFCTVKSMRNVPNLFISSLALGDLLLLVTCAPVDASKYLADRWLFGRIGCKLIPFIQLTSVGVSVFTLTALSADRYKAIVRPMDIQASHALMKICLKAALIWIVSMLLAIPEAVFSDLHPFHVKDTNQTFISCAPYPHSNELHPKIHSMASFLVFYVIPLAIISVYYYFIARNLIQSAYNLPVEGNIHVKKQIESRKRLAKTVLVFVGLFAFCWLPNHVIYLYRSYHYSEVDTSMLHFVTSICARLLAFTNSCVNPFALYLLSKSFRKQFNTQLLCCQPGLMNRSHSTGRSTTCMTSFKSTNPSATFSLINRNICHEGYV
# HA-MOR1 = target: T3, HA-MOR1 (Mus musculus, UniProt P42866); assay: Receptor internalization assay (ELISA, immunofluorescence staining) in HEK 293 cells: MOR1; assay type: cell-based; settings: HEK 293 cells expressing MOR1 only, or MOR1 and GRPR; agonist 1 μM
# T3 construct: expressed in transfected cells
# mice [3] = assay: Von Frey assay, naive mice and CFA inflammatory pain model; assay type: in vivo, mouse
# Method: In CFA induced inflammatory pain, mice received an injection of CFA (20 μl, Sigma) into the plantar of the right hindpaw. Mechanical sensitivity was assessed using von Frey assay.
# Mechanical sensitivity was assessed using a set of calibrated von Frey filaments (Stoelting). Each filament was applied 5 consecutive times and the smallest filament that evoked reflexive flinches of the paw on 3 of the 5 trials was taken as paw withdrawal threshold.
# [4] = test system: HEK 293 cells containing only GRPR; assay: Calcium imaging, cells containing only GRPR; assay type: cell-based, mouse
# [5] = test system: HEK 293 cells expressing MOR1D alone; assay: Calcium imaging, cells expressing MOR1D alone; assay type: cell-based, mouse
# mice [6] = settings: mouse, in vivo; remark: listed apart in the source
# [7] = test system: HEK 293 cells co-expressing MOR1 and GRPR; assay: Calcium imaging, cells co-expressing MOR1 and GRPR; assay type: cell-based, mouse
# GRPR/MOR1D interaction = target: T4, GRPR/MOR1D interaction (Mus musculus, UniProt P21729); settings: in vivo
# T4 construct: co-IP analysis using the membrane extracts of the spinal cord injected with Tat-MOR1DCT and the vehicle; from tissue; host or cells: lumbar spinal cord membrane extract after intrathecal injection
# T4 sequence (P21729 whole entry): as above
# MOR1 mRNA = assay: qRT-PCR after i.t. siRNA: MOR1 mRNA; assay type: in vivo, mouse; settings: spinal cord
# Method: as §1, §2, §3, §4
# [8] = HEK 293 cells expressing GRPR alone
compound,measurement,setting,value
2-APB,effect on MIA,mice [1],no effect on MIA
"UGAGGAACCUUCUUCCUGAuu (UGAGGAACCUUCUUCCUGAUU; chemistry not given here) [exon 9 siRNA, siRNA duplex for mouse Oprm exon 9]",effect of siRNA knockdown on MIA,mice [1],had no effect on MIA
same,spinal MOR1D mRNA level,MOR1D mRNA,significantly reduced
same,effect of siRNA knockdown on GIS,"mice [2]; mouse, in vivo",no significant reduction of GIS; also recorded: not affected
C[C@@H](NC(=O)[C@@H](N)Cc1ccc(O)cc1)C(=O)NCC(=O)N(C)[C@@H](Cc1ccccc1)C(=O)NCCO [DAMGO],agonist-induced MOR1D internalization,HA-MOR1D,can be internalized
same,agonist-induced GRPR internalization,Myc-GRPR; [8],cannot internalize GRPR
same,agonist-induced MOR1 internalization,HA-MOR1,can be internalized
CN1CC[C@]23c4c5ccc(O)c4O[C@H]2[C@@H](O)C=C[C@H]3[C@H]1C5 [morphine],mechanical threshold in CFA-treated mice,"mice [3]; i.t. morphine 0.3 nmol, 24 hr after intraplantar CFA",significantly increased mechanical threshold
same,calcium response to agonist,[4],failed to evoke Ca2+ spikes
same,MIA enhancement when the morphine dose increased from 0.3 nmol to 1.0 nmol,mice [1],81%
same,MIA in mice with acute morphine tolerance,mice [1],significant reduction of MIA relative to the saline control
same,MIA in mice with chronic morphine tolerance,mice [1],significant reduction of MIA relative to the saline control; also recorded: showed antinociceptive tolerance
same,"MIA, dose effect of i.t. morphine",mice [1],increased in a dose-dependent manner
same,duration of MIA,mice [1],maintained at a maximal level for at least one hr
same,calcium response to agonist,[5],neither morphine nor GRP generated a calcium response
same,agonist-induced GRPR internalization,Myc-GRPR; HEK 293 cells co-expressing MOR1 and GRPR,failed to induce GRPR internalization; also recorded: when co-expressed with HA-MOR1D but not HA-MOR1
same,agonist-induced GRPR internalization,Myc-GRPR; [8],failed to induce GRPR internalization
same,time after which no scratches were seen,mice [6],40 min
same,time within which MIS increased dramatically,mice [6],≤ 10 min
"AAACCCUGCAAGAGUUGCAuu (AAACCCUGCAAGAGUUGCAUU; chemistry not given here) [exon 7 siRNA, siRNA duplex for mouse Oprm exon 7]",effect of siRNA knockdown on MIA,mice [1],had no effect on MIA
gastrin-releasing peptide [GRP],agonist-induced MOR1D internalization,HA-MOR1D,neither MOR1D nor MOR1 internalized; also recorded: failed to cause MOR1D internalization
same,calcium response to agonist,[5],neither morphine nor GRP generated a calcium response
same,agonist-induced MOR1 internalization,HA-MOR1,neither MOR1D nor MOR1 internalized
same,calcium response to agonist,[7],they responded to GRP
same,GIS in MOR KO vs wild-type littermate mice,mice [2]; i.t. GRP,normal; also recorded: comparable
COc1ccc2c(c1)CC[C@@H]1[C@@H]2CC[C@]2(C)[C@@H](NCCCCCCN3C(=O)C=CC3=O)CC[C@@H]12 [U73122],effect on MIA,mice [1],did not impact MIA; also recorded: not significantly affected
YGRKKRRQRRRRNEEPSS [Tat-MOR1DCT],effect on MIA,mice [1],unperturbed; also recorded: had no effect on MIA
same,amount of GRPR precipitated by MOR1D antibody (GRPR/MOR1D interaction),GRPR/MOR1D interaction,significantly reduced the amount of GRPR precipitated by MOR1D antibody; also recorded: markedly reduces co-immunoprecipitation of GRPR and MOR1D; also recorded: decreased GRPR/MOR1D interaction
same,effect on GIS,"mice [2]; mouse, in vivo",unperturbed; also recorded: without affecting GIS
"UCUGGAAGCAGAAACUGCUuu (UCUGGAAGCAGAAACUGCUUU; chemistry not given here) [exon 4 siRNA, siRNA duplex for mouse Oprm exon 4]",effect of siRNA knockdown on MIA,mice [1],markedly attenuated MIA; also recorded: significantly reduced morphine analgesic effect
same,spinal MOR1 mRNA level,MOR1 mRNA,selectively decreased; also recorded: significantly knocked down
C=CCN1CC[C@]23c4c5ccc(O)c4O[C@H]2C(=O)CC[C@@]3(O)[C@H]1C5 [naloxone],effect on GIS,mice [2]; naloxone 3 mg/kg s.c.,did not change GIS; also recorded: not significantly affected
COC(=O)/C=C/C(=O)N[C@@H]1CC[C@@]2(O)[C@H]3Cc4ccc(O)c5c4[C@@]2(CCN3CC2CC2)[C@H]1O5 [beta-FNA],effect on MIS,mice [6],significantly blocked
D-Phe-6-Bn(6-13)OMe [GRPR antagonist],effect on analgesic effect of intrathecal morphine in CFA model,"mice [3]; GRPR antagonist 1.0 nmol co-injection, morphine 0.3 nmol i.t.",not significantly affected
same,"effect of the agent itself on acute pain, von Frey","mice [3]; i.t., without morphine",no significant effect on acute pain; also recorded: did not significantly affect the acute pain
same,"effect of the agent itself on acute pain, tail immersion assay",mice [1],no significant effect on acute pain; also recorded: did not significantly affect the acute pain
same,effect on MIA,mice [1],remained unchanged; also recorded: not significantly affected
